For three molecules, IC50 results are on record in BindingDB's records for doi:10.1016/j.chembiol.2010.05.008 (Kyowa Hakko Kogyo, 2010).

The target in this experiment is Nicotinamide phosphoribosyltransferase (Homo sapiens, UniProt P43490). The experiment is described as follows: In Vitro Inhibition Assay.
Chain of Nicotinamide phosphoribosyltransferase (P43490 whole entry): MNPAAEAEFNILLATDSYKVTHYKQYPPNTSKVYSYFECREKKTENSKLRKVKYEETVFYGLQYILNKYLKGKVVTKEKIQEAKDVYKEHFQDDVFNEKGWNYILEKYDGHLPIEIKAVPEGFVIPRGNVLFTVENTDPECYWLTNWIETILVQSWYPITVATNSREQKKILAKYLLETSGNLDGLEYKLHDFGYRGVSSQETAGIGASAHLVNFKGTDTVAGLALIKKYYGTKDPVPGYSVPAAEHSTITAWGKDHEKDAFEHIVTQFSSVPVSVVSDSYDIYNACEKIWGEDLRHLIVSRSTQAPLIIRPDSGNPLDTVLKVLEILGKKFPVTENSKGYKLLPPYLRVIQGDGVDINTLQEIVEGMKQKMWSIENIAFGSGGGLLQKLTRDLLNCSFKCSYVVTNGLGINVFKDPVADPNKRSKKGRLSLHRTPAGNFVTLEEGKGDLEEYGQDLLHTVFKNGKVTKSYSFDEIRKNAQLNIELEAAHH
`C#CCN(Cc1cc2c(=O)n(C)c(CN3CCN(C)CC3)nc2cc1Cl)c1ccc(C(=O)NCc2cccnc2)cc1` displayed an IC50 of 0.23 nM. In other words, the sub-nanomolar range.

`C#CCN(Cc1cc2c(=O)n(C)c(CN3CCN(C)CC3)nc2cc1Cl)c1ccc(C(=O)NCc2ccccn2)cc1` [MPI-0482593] yielded a 50% inhibitory concentration (IC50) of 74 nM.

Regarding `C#CCN(Cc1cc2c(=O)n(C)c(CN3CCN(CCN)CC3)nc2cc1Cl)c1ccc(C(=O)NCc2ccccn2)cc1` [MPI-0482594], the IC50 was 29 nM.
